In data set [1] the test system is melanocytes. In words: Cytotoxicity of literature controls in the melanocyte tyrosinase model. How it is done: A study is performed with molecules known in the literature for their depigmenting activity; these molecules are applied to the model described in Example 29 so as to compare their efficacy relative to the molecules described in the various examples. […]

Data set [2] relates to fungal tyrosinase. In words: In vitro test of inhibition of isolated fungal tyrosinase (L-dopa, dopachrome OD 490 nm). It counts as biochemical. An excerpt: Tyrosinase catalyses the formation of L-dopaquinone and then of dopachrome from L-dopa. Now, dopachrome is a coloured compound that may be quantified by visible spectrophotometry at 490 nm. The use of an active agent capable of modifying the enzymatic activity will be reflected by a variation in the optical density at 490 nm. The to ratio of the rates of formation of dopachrome makes it possible to determine precisely the activations or inhibitions obtained with the various test molecules.
The sample to be tested is incubated in the presence of fungal tyrosinase (Sigma), for 5 minutes with stirring. L-Dopa (Sigma), a tyrosinase substrate, is incubated for 10 minutes in the absence of light, in the presence or absence of the test molecules. The calculation of the percentage of inhibition is performed by relating the test OD to the OD of the negative control without molecule.
In the context of this in vitro test, the p-coumaric acid derivatives were tested at final concentrations of 10^−4M and 10^−5M.

Data set [3] deals with T1, Human tyrosinase (Homo sapiens, UniProt P14679).
T1 construct: endogenous in cells; host or cells: normal human melanocytes (abdominal surgery; several donors of fair, brown and black phototypes)
T1 sequence (P14679 19-529): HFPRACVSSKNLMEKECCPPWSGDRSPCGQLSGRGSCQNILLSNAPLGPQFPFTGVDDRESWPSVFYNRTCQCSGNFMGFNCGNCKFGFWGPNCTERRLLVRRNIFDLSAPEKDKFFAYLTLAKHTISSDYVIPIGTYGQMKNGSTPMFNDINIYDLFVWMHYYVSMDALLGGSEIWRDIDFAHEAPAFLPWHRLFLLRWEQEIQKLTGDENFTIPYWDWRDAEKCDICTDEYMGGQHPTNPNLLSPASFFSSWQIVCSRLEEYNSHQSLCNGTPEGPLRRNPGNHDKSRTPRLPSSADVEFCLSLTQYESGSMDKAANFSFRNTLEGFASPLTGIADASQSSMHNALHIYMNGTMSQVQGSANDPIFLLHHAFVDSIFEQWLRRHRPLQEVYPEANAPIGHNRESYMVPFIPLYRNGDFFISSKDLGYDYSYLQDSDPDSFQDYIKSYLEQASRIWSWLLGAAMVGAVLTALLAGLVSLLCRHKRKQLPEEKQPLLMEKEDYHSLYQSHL
In words: Inhibition of human tyrosinase after 24 h application to normal human melanocytes in monolayer. It counts as cell-based. As to conditions: for inhibition at 100 µM: read-out: Inhibition of human tyrosinase after application to normal human melanocytes, percentage of inhibition, Mean 10^−4M; for inhibition at 10 µM: 10^−5M, read-out: Inhibition of human tyrosinase after application to normal human melanocytes, percentage of inhibition, Mean 10^−5M; for anti-tyrosinase activity, in words: comment on Table 4, normal human melanocytes; for Tyrosinase inhibition, Mean Inhibition (%), 0.03%: test concentration 0.03%. The protocol: Normal human melanocytes (obtained from abdominal surgery) are seeded in 24-well plates at a rate of 80 000 cells per well. They are cultured to confluence and the active agents are applied for 24 hours to the culture media. After 24 hours, the media are removed and the melanocytes are detached via mechanical action. An extraction is performed via a thermal shock and the supernatants are then recovered and incubated with MBTH (Sigma) and L-dopa (Sigma). The OD at 490 nm is measured after 30 minutes, and the tyrosinase inhibition is calculated by relating the OD at 490 nm to the protein content (measured in each culture well) of the test relative to the ratio: OD 490 nm/protein concentration of the negative control (untreated control).
The compounds derived from the examples mentioned above were tested on melanocytes derived from various donors but of fair phototype, according to the protocol described in Example 29. The donors tested are as follows: • donor S (donor tested in Example 12): • donor 1: • donor 2: • donor 3
The compound derived from Example 1 is tested on cultures of melanocytes obtained from 2 donors of brown phototype and from one donor of black phototype. The protocol applied is that described in Example 29. […]

Data set [4] in a line: Antiradical activity, acellular DPPH model. As to conditions: DPPH 30 minutes, absorbance 520 nm. The protocol:
The antiradical activity of the derivatives derived from the syntheses described above was evaluated in an in vitro acellular model using DPPH.
1,1-Diphenyl 2-picryihydrazyl, on account of its paramagnetic structure, can accept an electron or a hydrogen radical to become a stable diamagnetic molecule. This free radical, which is purple coloured in ethanol, has a strong absorption band at 520 nm.
The addition of a compound that provides electrons results in a decolorization of the 1,1-diphenyl 2-picrylhydrazyl that is proportional to the number of electrons taken up by the radical, which may be monitored by measuring the absorbance at 520 nm.
DPPH is incubated for 30 minutes in the presence of the derivatives described above, tested at a concentration of 10^−5M, or alone for the control. At the end of the incubation, the antiradical activity of the above derivatives is evaluated by measuring the absorbance of the solution at 520 nm.
The antiradical activity of each test product is calculated according to the formula, as a percentage: 100−((OD520 in the presence of the test compound/OD520 in the absence of compound)×100)

The target in data set [5] is T1, Human tyrosinase. In words: In vitro test of inhibition of human tyrosinase from melanocyte extracts (L-dopa/MBTH, OD 490 nm). The conditions noted are these: melanocyte extract; for inhibition at 100 µM: 10^−4M, read-out: Inhibition of human tyrosinase, percentage of inhibition, Mean 10^−4M; for inhibition at 10 µM: 10^−5M, read-out: Inhibition of human tyrosinase, percentage of inhibition, Mean 10^−5M. It is filed as biochemical. The protocol:
Human tyrosinase, obtained from melanocyte extracts obtained from healthy donors, catalyses the formation of L-dopaquinone from L-dopa. Now, the L-dopaquinone may be quantified by visible spectrophotometry at 490 nm by means of a chromogen: 3-methyl-2-benzothiazolinone hydrazone (MBTH).
The melanocyte extract is obtained after lysis of cell membranes of the normal human melanocytes, performed via a thermal shock. The supernatant is recovered and then incubated with MBTH (Sigma) and L-dopa (Sigma). […]

Data set [6] deals with normal human melanocytes. In words: Cytotoxicity on normal human melanocytes, PNPP assay. It is filed as cell-based. As to conditions: 24 hours, relative to untreated wells. How it is done:
The cytotoxicity of the active agents is studied on normal human melanocytes in 24-well plates, via assay with PNPP (P-nitrophenyl phosphate), this substance being converted into p-nitrophenol via the intracellular acid phosphatases of viable cells. The absorbance of p-nitrophenol at 405 nm is directly proportional to the number of viable cells.
The active agents are tested at 2 different concentrations (10^−4 M and 10^−5 M) and added to the culture medium and incubated at 37° C. for 24 hours. The assay with PNPP is performed on the cell lawn and the results are expressed as a percentage of viability relative to the negative control (untreated wells).

Read-outs that look alike come from different tables or passages of the source.

The values that follow come from patent US9089499B2, “Para-coumaric acid or para-hydroxycinnamic acid derivatives and their use in cosmetic or dermatological compositions” (BASF Beauty Care Solutions France S.A.S., priority 2005, dated 2015).

As for `O=c1cc(CO)occ1O` [Kojic acid, kojic acid], in data set [1], the “Cytotoxicity, 0.005%” value was “no”; the “Cytotoxicity, 0.05%” value is listed as “no”; the “Cytotoxicity, 0.5%” value was “cell death”. Besides, the “Inhibition of fungal tyrosinase, positive control” value in data set [2] (0.01%) was found to be 45%.
What is called inhibition is the share of the control response that was lost under treatment. Take `O=C(O)C=Cc1ccc(O)c(O)c1` [Caffeic acid, 3,4-dihydroxycinnamic acid, reference compound]: the inhibition at 100 µM in data set [3] (10^−4M, 24 hours) came out at 10.4%. In addition, the inhibition at 10 µM in data set [3] (24 hours) was 2.34%. The “anti-tyrosinase activity, in words” value in data set [3] is recorded as “very low activity”.
For `COc1cc(/C=C/C(=O)NCc2ccc(O)c(OC)c2)ccc1O` [Example 4, N-trans-feruloyl-4-hydroxy-3-methoxyphenylmethylamine], in data set [4], the “Antiradical activity, Mean 10^−5 M” value is on record as 15.72%. Besides, in data set [5], the inhibition at 100 µM was determined as 6.42% and the inhibition at 10 µM is 4.92%. In data set [2] (490 nm), the “Inhibition of fungal tyrosinase, percentage of inhibition, Mean 10^−4M” value is given as 1.35%. Besides, the “Inhibition of fungal tyrosinase, percentage of inhibition, Mean 10^−5M” value in data set [2] (10^−5M, 490 nm) was found to be 0%. In addition, in data set [6], the “Percentages of viability, Mean 10^−4 M” value is recorded as 101.94% and the “Percentages of viability, Mean 10^−5 M” value was 99.55%. The inhibition at 100 µM in data set [3] (10^−4M, 24 hours) was found to be 39.8%. For the same molecule, the inhibition at 10 µM in data set [3] (24 hours) was determined as 15.8%.
`O=C(O)CCc1ccc(O)cc1` [p-Dihydrocoumaric acid, 3-(4-hydroxyphenyl)propionic acid, reference compound]: the inhibition at 100 µM in data set [3] (10^−4M, 24 hours) turned out to be 3.74%.
With `COc1cc(/C=C/C(=O)NCCc2ccc(OC)c(OC)c2)ccc1O` [Example 2, N-trans-feruloyl-3,4-dimethoxydopamine], in data set [4], the “Antiradical activity, Mean 10^−5 M” value is on record as 20.16%. Also, in data set [5], the inhibition at 100 µM was found to be 0.94% and the inhibition at 10 µM amounted to 0%. The “Inhibition of fungal tyrosinase, percentage of inhibition, Mean 10^−4M” value in data set [2] (490 nm) stood at 0%. In addition, in data set [6], the “Percentages of viability, Mean 10^−4 M” value is given as 114.29% and the “Percentages of viability, Mean 10^−5 M” value is given as 114.6%. Moreover, the inhibition at 100 µM in data set [3] (10^−4M, 24 hours) came to 24.6%. Further, in data set [3] (24 hours), the inhibition at 10 µM was 18.5%.
Turning to `O=C1O[C@H]([C@@H](O)CO)C(O)=C1O` [VitC, Vitamin C], the “Cytotoxicity, 0.03%” value in data set [1] was “no”. In data set [1] (test concentration 0.3%), the “Cytotoxicity, 0.3%” value is reported as “cell death”. For the same molecule, in data set [1] (test concentration 3%), the “Cytotoxicity, 3%” value is recorded as “cell death”. The “Tyrosinase inhibition, Mean Inhibition (%), 0.03%” value in data set [3] stood at 0%.
Turning to `O=C1O[C@H]([C@@H](O)CO)C([O-])=C1OP(=O)([O-])[O-].O=C1O[C@H]([C@@H](O)CO)C([O-])=C1OP(=O)([O-])[O-].[Mg+2].[Mg+2].[Mg+2]` [VitC MgP, reference compound], in data set [1], the “Cytotoxicity, 0.03%” value was “no”; the “Cytotoxicity, 0.3%” value is “no”; the “Cytotoxicity, 3%” value is on record as “no”. Besides, the “Tyrosinase inhibition, Mean Inhibition (%), 0.03%” value in data set [3] was found to be 2.93%. Also, in data set [3] (test concentration 0.3%), the “Tyrosinase inhibition, Mean Inhibition (%), 0.3%” value was 1.55%. Further, in data set [3] (test concentration 3%), the “Tyrosinase inhibition, Mean Inhibition (%), 3%” value turned out to be 0%.
For the molecule `O=C(CCc1ccc(O)c(O)c1)NCCc1ccc(O)cc1` [Example 13, dihydrocaffeoyltyramine], in data set [3] (10^−4M, 24 hours), the inhibition at 100 µM amounted to 93.9%. Moreover, the inhibition at 10 µM in data set [3] (24 hours) was determined as 12.9%.
Turning to `Cl.NCCc1ccc(O)cc1` [Tyramine, reference compound], in data set [3], the “anti-tyrosinase activity, in words” value was “very low activity” and the inhibition at 100 µM came to 22.8%.
For the molecule `Cl.NCCc1ccc(O)c(O)c1` [Dopamine, 3-hydroxytyramine, reference compound], in data set [3], the “anti-tyrosinase activity, in words” value was “very low activity” and the inhibition at 100 µM is 10.3%.
With `COc1cc(CCC(=O)NCCc2ccc(O)cc2)ccc1O` [Example 5, N-dihydroferuloyltyramine], in data set [3] (10^−4M, 24 hours), the inhibition at 100 µM was 27.7%.
As to `COc1cc(/C=C/C(=O)OCCc2ccc(O)cc2)ccc1O` [Example 7, 2-(p-hydroxyphenylethyl)trans-ferulate], the inhibition at 100 µM in data set [3] (10^−4M, 24 hours) was found to be 33.6%. Also, in data set [3] (24 hours), the inhibition at 10 µM was determined as 3.48%.
As to `COc1cc(C=CC(=O)O)ccc1O` [Ferulic acid, 4-hydroxy-3-methoxycinnamic acid, reference compound], the inhibition at 100 µM in data set [3] (10^−4M, 24 hours) worked out at 11.7%. Also, the inhibition at 10 µM in data set [3] (24 hours) was found to be 5.87%. In addition, the “anti-tyrosinase activity, in words” value in data set [3] is listed as “very sparingly active”.
Consider `O=C(CCc1ccc(O)cc1)NCCc1ccc(O)cc1` [Example 16, N-dihydrocoumaroyltyramine], for which the inhibition at 100 µM in data set [3] (10^−4M, 24 hours) stood at 96.2%. Besides, in data set [3] (24 hours), the inhibition at 10 µM is 40.7%.
Regarding `COc1cc(CCC(=O)NCCc2ccc(O)c(O)c2)ccc1O` [Example 6, N-dihydroferuloyldopamine], the inhibition at 100 µM in data set [3] (10^−4M, 24 hours) is 41.8%.
For `O=C(O)C=Cc1ccc(O)cc1` [p-Coumaric acid, p-hydroxycinnamic acid, reference compound], the inhibition at 100 µM in data set [3] (10^−4M, 24 hours) turned out to be 50.1%.
